Laboratory results taken from patent US11191705B2, “Personal cleansing compositions” (The Procter & Gamble Company, priority 2018, dated 2021).

Tested on: Staphylococcus aureus ATCC 6538
Assay: Combinatorial Minimum Inhibitory Concentration (cMIC) test
Assay type: cell-based
Set-up: key to bacteria growth (values equal to or higher than 10 mean growth, less than 10 no growth): % of OD620 of control well without actives (full growth)
Conditions: for reduction of level when combined (MIC alone / level in combination): 33.3/3.13 for hinokitiol, 12.5/6.25 for piroctone olamine
Description: One way to combat the issues of cost of a material is to combine it with a lower cost material. This can be complicated depending on whether the materials interact, what each of the materials target, whether they can complement one another, how much of each is needed for efficacy, etc. This is considered to be an additive interaction between the materials, i.e. where each is doing what one would expect based on their individual properties. Occasionally, when materials are added together the combination performs better than what would be expected based on the individual performances. This is considered a synergistic relationship. Synergy can be determined through the use of a Combinatorial Minimum Inhibitory Concentration (“cMIC”) test. This can be used to determine the combinatorial effects of two chemicals on anti-bacterial activity in a tissue culture setting.
It has been discovered that there is a synergistic relationship between hinokitiol and a 2-pyridinol N-oxide material, piroctone olamine. cMIC testing was conducted utilizing Staphylococcus aureus as the bacteria. […] When combined, they were efficacious at levels of 6.25 ppm piroctone olamine and only 3.13 ppm of hinokitiol. Thus, a benefit is seen where the combination of piroctone olamine and hinokitiol comprise about 9 ppm or more by weight of the cleansing composition. Thus, hinokitiol and piroctone olamine levels are reduced by 10.7 times (33.3/3.13) and 2 times (12.5/6.25), respectively. […] Thus, combining piroctone olamine and hinokitiol allows for the use of less of each material and can reduce costs.
Combinatorial Minimum Inhibitory Concentration (cMIC) Method
A Combinatorial Minimum Inhibitory Concentration (“cMIC”) is used to determine the combinatorial effects of two chemicals on anti-bacterial activity in a tissue culture setting. Herein, the cMIC is a measure of the Minimum Inhibitory concentrations (MIC) of Hinokitiol in combination with Piroctone Olamine or vice versa.
1. Method Overview: • a. Each cMIC assay is run in triplicates. • b. Staphylococcus aureus ATCC 6538 is cultured on tryptic soy agar (TSA) (Oxoid CM0131) over 24 hours. The single colonies are then transferred into saline and mixed through vortex to obtain an optical density (OD) of 0.08-0.13 at 620 nm. 200 μL of this bacterial suspension is added to 19.8 mL of Mueller Hinton Broth (MHB) (BD 212322). This gives 5×10^5 cfu/mL. 100 μL of this bacteria-MHB mix is added to a 96 well flat-bottomed plate (TRP 92196). • c. Hinokitiol is pipetted into the wells in varying concentrations as indicated below. • d. Piroctone Olamine is pipetted into the wells in varying concentrations, as indicated below. • e. The plates are then read using a spectrophotometer at 620 nm. This is the 0-hour reading. • f. The plates are incubated at 37° C. between 18-24 hours with shaking at 50 rpm. • g. The optical density of the plate is then measured using a spectrophotometer at 620 nm. • h. The OD value is calculated as subtraction of the readings between 18-24 hour and the 0-hour. • i. cMIC is determined as the minimal concentration of Hinokitiol in combination with Piroctone Olamine or vice versa, corresponding to the well whose OD value is less than 10% of the OD value of the control well without Hinokitiol and Piroctone Olamine (full growth).

Row | MIC (Staphylococcus aureus, ATCC6538, single material alone, read-out: minimum inhibitory concentration (MIC) against Staphylococcus aureus) [µg/mL] | Compound | reduction of level when combined (MIC alone / level in combination) [times] | bacteria growth (values equal to or higher than 10 mean growth, less than 10 no growth) (Hinokitiol 3.13 ppm alone (Piroctone Olamine 0 ppm)) | bacteria growth (values equal to or higher than 10 mean growth, less than 10 no growth) (Hinokitiol 6.25 ppm alone (Piroctone Olamine 0 ppm)) | bacteria growth (values equal to or higher than 10 mean growth, less than 10 no growth) (Hinokitiol 12.5 ppm alone (Piroctone Olamine 0 ppm)) | bacteria growth (values equal to or higher than 10 mean growth, less than 10 no growth) (Hinokitiol 25 ppm alone (Piroctone Olamine 0 ppm)) | bacteria growth (values equal to or higher than 10 mean growth, less than 10 no growth) (Hinokitiol 33.5 ppm alone (Piroctone Olamine 0 ppm)) | bacteria growth (values equal to or higher than 10 mean growth, less than 10 no growth) (Hinokitiol 42.5 ppm alone (Piroctone Olamine 0 ppm)) | bacteria growth (values equal to or higher than 10 mean growth, less than 10 no growth) (Hinokitiol 50 ppm alone (Piroctone Olamine 0 ppm)) | Bacterial growth (Piroctone olamine 0 ppm, Hinokitiol 33.5 ppm) | bacteria growth (values equal to or higher than 10 mean growth, less than 10 no growth) (Piroctone Olamine 3.13 ppm alone (Hinokitiol 0 ppm)) | bacteria growth (values equal to or higher than 10 mean growth, less than 10 no growth) (Piroctone Olamine 6.25 ppm alone (Hinokitiol 0 ppm)) | bacteria growth (values equal to or higher than 10 mean growth, less than 10 no growth) (Piroctone Olamine 12.5 ppm alone (Hinokitiol 0 ppm)) | bacteria growth (values equal to or higher than 10 mean growth, less than 10 no growth) (Piroctone Olamine 15 ppm alone (Hinokitiol 0 ppm)) | bacteria growth (values equal to or higher than 10 mean growth, less than 10 no growth) (Piroctone Olamine 17.5 ppm alone (Hinokitiol 0 ppm)) | bacteria growth (values equal to or higher than 10 mean growth, less than 10 no growth) (Piroctone Olamine 20 ppm alone (Hinokitiol 0 ppm)) | bacteria growth (values equal to or higher than 10 mean growth, less than 10 no growth) (Piroctone Olamine 25 ppm alone (Hinokitiol 0 ppm)) | Bacterial growth (Piroctone olamine 6.25 ppm, Hinokitiol 0 ppm) | minimum inhibitory concentration (MIC) against Staphylococcus aureus (single material alone) [ppm]
1 | 33.3 | CC(C)c1cccc(=O)c(O)c1 [Hinokitiol] | 10.7 | 78 | 103 | 65 | 17 | 4 | 2 | 1 | Yes | – | – | – | – | – | – | – | – | –
2 | – | Cc1cc(CC(C)CC(C)(C)C)n(O)c(=O)c1.NCCO (centres unmarked) [Piroctone Olamine, piroctone olamine] | 2 | – | – | – | – | – | – | – | – | 94 | 46 | 1 | 1 | 1 | 1 | 2 | Yes | 12.5
